Data published in patent US20230190736A1, “SMALL MOLECULE THERAPEUTICS FOR THE TREATMENT OF VIRAL INFECTIONS” (priority 2020, published 2023).
pIC50: −log10 of the molar value. Where two headings read alike, the source gives them in different places.

Tests used:
Assay type in all cases: cell-based
[1] = tested on: human lung stem cell derived Air-liquid interface (ALI) cells; test: Cell Titer glo viability assay in air-liquid interface (ALI) cultures; details: up to 50 μM, 48 hours post treatment
Experimental: Series 1 and 2 are the values from independent wells.
Berzosertib was tested in a primary human lung tissue culture system consisting of mucociliary air-liquid interface (ALI) cultures derived from primary human proximal airway basal stem cells (ABSCs). 24-well 6.5 mm trans-wells with […] polyester membrane inserts were used for culturing ALI cells. 500 μl ALI media (PneumaCult-ALI Medium, […] Technologies) was used in the basal chamber for ALI cultures and cells were cultured at 37° C. with 5% CO2. […] Control cells were treated with the solvent DMSO. 48 hours post drug treatment, the cells were subjected to viability assay using Cell Titer glo kit.

SARS-CoV-2 [2] = test: microbe, parasite or virus in culture
SARS-CoV-2 [3] = test: microbe, parasite or virus in culture; details: Severe acute respiratory syndrome coronavirus 2; secondary screen, doses 2.5, 25, 250 and 500 nM, immunofluorescent assay; read-out: IC50 anti SARS-CoV-2 activity
SARS-CoV-2 [4] = details: Compound A 50 nM, Compound B 50 nM; higher is better
SARS-CoV-2 [5] = test: mTORC1 inhibition of SARS-CoV-2 replication in Vero cells (fluorescence microscopy); details: 25 nM, 72 hours
SARS-CoV-2 [6] = details: 10 um, 1 hour pretreatment, MOI 1, 48 hpi

CNCc1ccc(-c2cc(-c3nc(-c4ccc(S(=O)(=O)C(C)C)cc4)cnc3N)on2)cc1 [Berzosertib]
effect on cell viability [1]: did not have any deleterious effect on cell viability
effect on cell viability ([1]; listed as berzosertib): non-toxic and safe
inhibition of virus positive cells (SARS-CoV-2 [2]): over 70%
pIC50 (SARS-CoV-2 [2]; Severe acute respiratory syndrome coronavirus 2, read-out: IC50 inhibiting SARS-CoV-2 determined by RTQPCR): 7.40
pIC50 (SARS-CoV-2 [3]): 7.60

COc1ccc(CC(C)NCC(O)c2ccc(O)c(NC=O)c2)cc1 (stereo not drawn) [Empty-Formoterol, Formoterol]
Cell Number: Cell Nuclei Counts (SARS-CoV-2 [4]): 8390

OCc1cc(C(O)CNCCCCCCOCCCCc2ccccc2)ccc1O (stereo not drawn) [Empty-Salmeterol, Salmeterol]
Cell Number: Cell Nuclei Counts (SARS-CoV-2 [4]): 8193

Cc1cn(-c2cc(NC(=O)c3ccc(C)c(Nc4nccc(-c5cccnc5)n4)c3)cc(C(F)(F)F)c2)cn1 [Nilotinib]
pIC50 (SARS-CoV-2 [3]): 6.30 to 6.60

CNC(=O)c1cccc(-c2ccc3c(N4CCOC[C@@H]4C)nc(N4CCOC[C@@H]4C)nc3n2)c1 [Vistusertib]
presence of viral dsRNA (SARS-CoV-2 [5]): almost completely abolished
pIC50 (SARS-CoV-2 [3]): 7.60

CCN(CCO)CCCC(C)Nc1ccnc2cc(Cl)ccc12 (stereo not drawn) [hydroxychloroquine]
inhibition of SARS-CoV-2 infection (dsRNA immunostaining) (SARS-CoV-2 [6]): efficiently inhibited SARS-CoV-2 infection
inhibition of SARS-CoV-2 infection (dsRNA immunostaining) (SARS-CoV-2 [6]; listed as HQ): effectively blocked SARS-CoV-2 infection
